Assay results as given in patent publication US9669038B1, “Heterocyclic compounds and uses thereof” (Globavir BioSciences, Inc., priority 2012, dated 2017).

How the values were obtained:
[1] = MTT cytotoxicity assay in MCF7 cells; format: cell-based; details: human, MCF7 breast cancer cells, 1 μM to 60 μM
Procedure: One potential issue that arises with the use of transcriptional inhibitors is their cytotoxicity. Therefore, careful assessment of the cytotoxicity is important to evaluate nonspecific, global effects on transcriptional machinery. Cytotoxicity experiments were performed in order to obtain the EC50 values of OOPS in an MCF7 breast cancer cell line.
The cells were treated with different concentrations of compound for 48 hours in serum free F-12K medium. The cells are plated into 96-well dishes (Greiner) at a density of 5,000-10,000 cells/well in 200 μl of the cell culture media prepared as recommended by the vendor (ATCC). The plates are then placed into the incubator (37° C., 5% CO2) until the desired confluence is reached (in ca. 24-72 hours). Next, the media in all wells is replaced with the solution of the OOPS compound (150 μl for 48 hour study, 200 μl for 72 hour study) in the appropriate cell culture medium. The plates are then incubated for 48 hours (37° C., 5% CO2). […] The resulting purple precipitate is then dissolved in DMSO (200 μl/well) and the absorption of the metabolite product (purple formazan) in each well is measured at 562 nm using microplate reader (BioTek Synergy II). The absorption values are plotted against the concentration of the compound and GI50 is determined.

[2] = tested on: HIF1α-inducible promoter activity; assay: luciferase-based hypoxia-inducible promoter activity assay, MDA-MB-231-HRE-Luc cell line; details: MDA-MB-231-HRE-Luc cells, various concentrations
Procedure: Results from the luciferase-based promoter activity assay with MDA-MB-231-HRE-Luc cell line treated with OOP 1 at various concentration. Hypoxia was mimicked by O2 deprivation in a GasPak™ EZ Anaerobe Pouch System (BD). Error bars represent ±s.e.m. of experiments performed in triplicates. * P<0.05, ** P<0.01, t-test, relative to sample Vehicle Hypoxia.
An analysis of hypoxia-inducible promoter activity was performed using luciferase assays in a MDA-MB-231 cell line stably transfected with hRE-hCMV-Luc plasmid. Cell lines were treated with OOP compounds at various concentrations. Hypoxia was mimicked by O2 deprivation in a GasPak™ EZ Anaerobe Pouch System (BD). Error bars represent ±s.e.m. of experiments performed in triplicates.

MCF7 cells = assay: gene expression profiling with Affymetrix Human Gene ST 1.0 Arrays; format: cell-based; details: 10 μM, hypoxia (GasPak EZ pouch), |fold-change|>2.0, P<0.005, set of 3328 transcripts
Procedure: (A) Agglomerative hierarchical clustering of expression changes of the 3328 transcripts induced or repressed 2-fold or more (one-way ANOVA, P<0.005) under hypoxia mimicked with GasPak EZ pouch and the four specified conditions: -, no treatment; 1, OOP 1 (10 iuM); 2, OOP 2 (10 μM), 4, OOP 4 (10 μM). Clustering was based on a Pearson centered correlation of intensity ratios for each treatment compared to hypoxic cells (controls) using average-linkage as a distance. Of this hypoxia-induced set, 148 were induced and 449 were inhibited by OOP 1, whereas 217 were induced and 371 inhibited by OOP 2 (|fold-change|>2.0, P<0.005). Treatment with control OOP 4 induced 91 and inhibited 82 transcripts (|fold-change|>2.0, P<0.005). (B) Clustering of expression changes of the 571 transcripts induced or repressed 4-fold or more (P<0.005) by hypoxia mimicked with GasPak EZ pouch under the designated treatment conditions. Clustering parameters were the same as in (A). All reported treatments are error-weighted averages from three experiments. […] Numbers inside the intersections represent hypoxia-induced transcripts affected by the treatments.
Target proteins p300 and CBP are pleiotropic multidomain coactivators, and their CH1 regions contain binding sites for multiple transcription factors. To determine nonspecific genome-wide effects of OOPS, in vitro gene expression profiling experiments were conducted with OOPS using Affymetrix Human Gene ST 1.0 Arrays containing oligonucleotide sequences representing 28,869 transcripts. In order to interrogate cellular genome for global effects, MCF7 cells were treated with OOPS.

VEGFA gene = assay: qRT-PCR of hypoxia-induced VEGFA transcription in A549 cells; format: cell-based; details: hypoxia (GasPak EZ Anaerobe Pouch), real-time qRT-PCR
Procedure: (§1) Hypoxia was mimicked by O2 deprivation in a GasPak™ EZ Anaerobe Pouch System (BD). […] Error bars are ±s.e.m. of four independent experiments. *** P<0.001, t-test.
(§2) A549 cells, a non-small cell lung adenocarcinoma cell line, were used. It has been reported that A549 cell line produces robust upregulation of key HIF-inducible genes under hypoxia conditions. […] A549 cells were maintained in 2% serum followed by treating cells with compound or control in the media with 0.2% serum for 48 h.
(§3) mRNA levels of three HIF-1α inducible genes: VEGF, c-Met and […] in A549 cells after treatment with OOPS were measured. Data from qRT-PCR experiments showing mRNA levels of three HIF-1α inducible genes, VEGF, c-Met and LOX in A549 after treatment of the cells in a medium with OOPS is described in FIGS. 1-3. Hypoxia was mimicked by O2 deprivation in a GasPak™ EZ Anaerobe Pouch System (BD). Error bars are ±s.e.m for the experiments performed in quadruplicate. Error bars are ±s.e.m. of experiments performed in triplicate. *** P<0.001, ** P<0.01, t test.

[3] = maximum tolerated dose (MTD) study; format: in vivo; details: Balb/C mice, intraperitoneal injection every 48 hours, up to 100 mg/kg
Procedure: Balb/C mice were used in an MTD experiment. 1 mouse was present in the vehicle group and 3 mice in OOP 2-treated group. Food and water ad libitum was provided as needed and according to the protocol. OOP 2 was administered by Intraperitoneal (IP) injection. OOP 2 was dissolved in sterile PBS at a concentration range between […]. Volume administered was about 100-150 μl every 48 hours. No toxicity was seen even at 100 mg/kg of OOP 2, at which point the experiment was terminated.

c-Met = assay: Western blot of intracellular c-Met levels in A549 cells; format: cell-based; details: A549 whole cell extract, 24 h incubation, hypoxia for last 18 h
Procedure: Western blot analysis of c-Met levels (A) with β-actin used as a control (B) in the whole cell extract of A549 cells. Cells were incubated for a total of 24 hours with OOP 2. After 6 h, hypoxia was mimicked by O2 deprivation in a GasPak™ EZ Anaerobe Pouch System (BD) for an additional 18 h.
(§4) The effect of OOPS on HIF-1α and c-met protein levels was studied. A549 cells were treated with OOPS. Cells were incubated for a total of 24 hours with OOP 2. After 6 h, hypoxia was mimicked by O2 deprivation in a GasPak™ EZ Anaerobe Pouch System (BD) for an additional 18 hours.

HIF-1α = assay: Western blot of intracellular HIF-1α levels in A549 cells; format: cell-based; details: A549 whole cell extract, 24 h incubation, hypoxia for last 18 h
Procedure: Western blot analysis of HIF-1α levels (A) with β-actin used as a control (B) in the whole cell extract of A549 cells. Cells were incubated for a total of 24 hours with OOP 2. After 6 h, hypoxia was mimicked by O2 deprivation in a GasPak™ EZ Anaerobe Pouch System (BD) for an additional 18 h.
as §4

c-Met gene = assay: qRT-PCR of hypoxia-induced c-Met transcription in A549 cells; format: cell-based; details: hypoxia (GasPak EZ Anaerobe Pouch), real-time qRT-PCR
Procedure: as §1, §2, §3

LOX gene = assay: qRT-PCR of hypoxia-induced LOX transcription in A549 cells; format: cell-based; details: hypoxia (GasPak EZ Anaerobe Pouch), real-time qRT-PCR
Procedure: as §1, §2, §3

For CC(C)C[C@@H]1NCCN([C@@H](CC(C)C)C(=O)N2CCN([C@@H](C)C(N)=O)C(=O)[C@@H]2C)C1=O [OOP 1], the EC50 at 48 h [1] was 30 µM, the “HIF1α-inducible promoter activity (luciferase)” value [2] was “reduces HIF1α-inducible promoter activity in vitro in a dose-dependent manner” and the “number of transcripts induced, of the hypoxia-induced set” value (“number of transcripts induced” for short) (MCF7 cells) was 148. The “number of transcripts inhibited, of the hypoxia-induced set” value (from here on “number of transcripts inhibited”) (MCF7 cells) was 449.
In the case of CC(C)C[C@@H]1NCCN([C@@H](CC(C)C)C(=O)N2CCN([C@@H](CCC(N)=O)C(N)=O)C(=O)[C@@H]2C)C1=O [OOP 2], the “expression levels of VEGFA gene (mRNA)” value (VEGFA gene) is reported as “reduced expression levels of VEGFA gene”, the “toxicity in MTD study” value [3] is reported as “No toxicity” and the “intracellular levels of c-Met (Western blot)” value (c-Met) is reported as “decreases intracellular levels of c-Met”. The EC50 at 48 h [1] was 30 µM, the “HIF1α-inducible promoter activity (luciferase)” value [2] was “reduces HIF1α-inducible promoter activity in vitro in a dose-dependent manner” and the “intracellular levels of HIF-1α (Western blot)” value (HIF-1α) was “does not decrease the intracellular levels of HIF-1α”. The “number of transcripts induced” value (MCF7 cells) was 217, the “number of transcripts inhibited” value (MCF7 cells) was 371 and the “expression levels of c-Met gene (mRNA)” value (c-Met gene) was “reduced expression levels of c-Met gene”. The “expression levels of LOX gene (mRNA)” value (LOX gene) was “reduced expression levels of LOX gene”.
With CC(C)C[C@H](N)C(=O)N1CCN([C@@H](C)C(=O)N2CCN([C@@H](C)C(N)=O)C(=O)[C@@H]2CC(C)C)C(=O)[C@@H]1CCCNC(=N)N [OOP 3] the “HIF1α-inducible promoter activity (luciferase)” value [2] was “reduces HIF1α-inducible promoter activity in vitro in a dose-dependent manner”.
With C[C@@H]1NCCN([C@@H](C)C(=O)N2CCN([C@@H](C)C(N)=O)C(=O)[C@@H]2C)C1=O [OOP 4] the “expression levels of VEGFA gene (mRNA)” value (VEGFA gene) was “no inhibitory activity”, the “HIF1α-inducible promoter activity (luciferase)” value [2] was “does not affect HIF1α-inducible promoter activity” and the “number of transcripts induced” value (MCF7 cells) was 91. For the same molecule, the “number of transcripts inhibited” value (MCF7 cells) was 82, the “expression levels of c-Met gene (mRNA)” value (c-Met gene) was “no inhibitory activity” and the “expression levels of LOX gene (mRNA)” value (LOX gene) was “no inhibitory activity”.
